Data published in PMC9032385, “A2A Adenosine Receptor Antagonists: Are Triazolotriazine and Purine Scaffolds Interchangeable?” (Molecules, 2022).

How the values were obtained:
[1] = system: BV-2 murine microglial cells; assay: RT-PCR expression of inflammatory mediators in LPS-activated BV-2 cells; type: cell-based
Experimental: BV-2 cells were treated with 13 or ANR 94 (10 nM) and activated with 100 ng/mL LPS for 24 h. Total RNA was isolated, and proinflammatory cytokine and enzyme expressions were measured using RT-PCR (Figure 5).
Cell Cultures and Treatments: BV-2 murine microglial cells (a gift from Prof. Elisabetta Blasi of the University of Modena and Reggio Emilia, Modena, Italy) were maintained at 37 °C and 5% CO2 in a humidified incubator and grown in DMEM supplemented with 10% (v/v) low-endotoxin fetal bovine serum (Euroclone—Milan, Italy), 2 mM L-glutamine, 50 U/mL penicillin, and 50 μg/mL streptomycin (Sigma-Aldrich–Merck, Milan, Italy). Cells were seeded at 50,000 cells/mL in 96-well tissue culture plates for the viability assay, in 6-well tissue culture plates for the Griess assay and RT-PCR assay. BV-2 cells were treated for 24 h with ANR 94 or 13 at different concentrations and then exposed to LPS (100 ng/mL; Sigma-Aldrich–Merck) for a further 24 h.
Real-Time Polymerase Chain Reaction (PCR): At the end of the experiments, total RNA was extracted by BV-2 cells using RNeasy Mini Kit (QIAGEN GmbH, Hilden, Germany). RNA concentraion and quality were measured on a NanoVue Spectrophotometer (GE Healthcare, Milano, Italy). iScript cDNA Synthesis Kit (Bio-Rad, Hercules, CA, USA) was used to synthesize cDNA starting from the extracted RNA, following the supplier’s instructions. PCR was performed by adding 2.5 μL (12.5 ng) of cDNA, 5 μL SsoAdvanced Universal SYBR Green Supermix (Bio-Rad), and 0.5 μL (500 nM) of each primer (Table 2) to a PCR tube. cDNA amplification was started at 95 °C for 30 s to activate the polymerase, followed by 40 cycles of 5 s at 95 °C and 30 s at 60 °C. Normalized expression levels were calculated relative to the control cells according to the 2^−ΔΔCT method.

[2] = target: T1, human recombinant A1AR (Homo sapiens, UniProt P30542); assay: Radioligand binding at human A1AR ([3H]CCPA displacement, CHO cell membranes); settings: displacement of [3H]CCPA, n = 3–5, means ± standard errors
T1 construct: expressed in transfected cells; membrane preparation
T1 sequence (P30542 1-326): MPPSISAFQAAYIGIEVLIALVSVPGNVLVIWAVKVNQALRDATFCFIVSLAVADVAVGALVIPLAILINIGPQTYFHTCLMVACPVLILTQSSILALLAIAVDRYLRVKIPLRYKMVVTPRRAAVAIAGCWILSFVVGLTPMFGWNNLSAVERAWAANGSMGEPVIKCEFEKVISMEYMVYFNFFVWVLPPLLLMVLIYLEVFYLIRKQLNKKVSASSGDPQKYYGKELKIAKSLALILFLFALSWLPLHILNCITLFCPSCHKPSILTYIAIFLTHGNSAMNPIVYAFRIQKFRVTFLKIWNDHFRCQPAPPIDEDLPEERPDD
Experimental: The affinities of the newly synthesized compounds 7–13 and 17–21 were determined in binding studies at human recombinant A1, A2A, and A3 ARs, stably transfected in Chinese hamster ovary (CHO) cells, using [^3H]CCPA (2-chloro-N^6-cyclopentylAdo), [^3H]NECA (5′-N-ethylcarboxamidoAdo), and [^3H]HEMADO (2-hexynyl-N^6-methylAdo) as respective radioligands. Most of the compounds were also evaluated at A2BARs in a functional study using the GloSensor cAMP assay. The results are reported in Table 1 as Ki values in nM (± standard errors). In the case of A2BARs, Ki-values were calculated from IC50-values determined by the inhibition of NECA-stimulated adenylyl cyclase activity.
Cell culture: The Chinese hamster ovary cells (CHO) stably transfected with the desired ARs were grown in DMEM/F12 medium containing 10% FBS (fetal bovine serum), 100 U/mL penicillin, 100 µg/mL streptomycin, 2.5 μg/mL amphotericin B, 1 mM sodium pyruvate, 0.1 mg/mL genetecina (G418), and incubated at 37 °C in a gaseous mixture of 5% CO2: […].
Preparation of membranes: Cell membranes for binding assays were prepared mechanically detaching the cells from the petri and suspending them in a cold hypotonic buffer (5 mM Tris/HCl, 2 mM EDTA, pH 7.4). The cell suspension was homogenized (Ultra-Turrax, 2 × 15 s at maximum speed) and the homogenate centrifuged for 10 min (4 °C) to 1000× g. The supernatant was subsequently centrifuged for 30 min (4 °C) at 100,000× g and the pellet containing the membrane proteins was re-suspended in a specific buffer for each receptor subtype (A1: 50 mM Tris/HCl, pH 7.4; A2A: 50 mM Tris/HCl, 10 mM MgCl2, pH 7.4; A3: 50 mM Tris/HCl, 10 mM MgCl2, 1 mM EDTA, pH 8.25). The amount of the protein suspension was determined according to the […] using the BCA Protein Assay Kit (Pierce), frozen in liquid nitrogen, and stored at −80 °C.
Binding assays: The dissociation constants of the radioligand (KD) were calculated through saturation assays, while the dissociation constants of the compounds under study (Ki) were determined by competition experiments. All binding data were calculated by nonlinear regression curves using the software GraphPad Prism 5 (GraphPad Software, San Diego, CA, USA). The increasing concentrations of the radioligand saturation binding ([^3H]-CCPA for the A1 receptor subtype, [^3H]-NECA for the A2A receptor subtype, and [^3H]-HEMADO for the A3 receptor) subtype were incubated in a total volume of 250 μL containing 0.2 U/mL of Ado deaminase (ADA) and 12 micrograms of membrane proteins in the specific buffer. In competition experiments for the A1 receptor subtype, each compound was added at increasing concentrations, to the well containing 1 nM of [^3H]-CCPA, to a final volume of 200 μL. The samples were left to incubate for 3 h at room temperature, filtered in a filter 96-well plate (UniFilter GF/C, Perkin-Elmer Life and Analytical Science, Boston, MA) using the FilterMate Cell Harvester (Perkin-Elmer), and washed 3 times with cold distilled water. After drying the filter plate at 40 °C for 30′, they 20 μL of scintillating liquid (Microscint-20, Perkin-Elmer) was added to each well, and then the radioactivity was quantized with the MicroBeta2 Plate Counter (Perkin-Elmer). The conditions for binding experiments at A2A and A3 receptor subtypes were essentially the same as for the A1AR using [^3H]-NECA (N-ethylcarboxyamideAdo) at a concentration of 10 nM and [^3H]-HEMADO (2-(1-hexyne)-N^6-methylAdo) at a concentration of 1 nM as radioligands, respectively. The samples were incubated with 12 micrograms of protein for 3 h at room temperature and filtered as described above.
The non-specific binding was determined in the presence of 1 mM theophylline for the A1AR, or 100 µM R-PIA (N^6-(1-methyl-2-phenylethyl)Ado) for the A2A and A3 receptors.

[3] = 10 nM for 24 h, then 100 ng/mL LPS 24 h

With `CCn1c(-c2ccco2)nc2c(N)nc(NCCc3ccc(O)cc3)nc21` [compound 13, 4-(2-((6-Amino-9-ethyl-8-(furan-2-yl)-9H-purin-2-yl)amino)ethyl)phenol] the “IL-10 mRNA expression” value ([1]; 10 nM before 100 ng/mL LPS 24 h) was “maintained IL-10 expression to a level comparable to the control cells”, the “COX-2 mRNA expression vs LPS” value [1, 3] was “significantly reduced the expression” and the “IL-1β mRNA expression vs LPS” value [1, 3] was “significantly reduced the expression”. The “IL-6 mRNA expression vs LPS” value [1, 3] was “significantly reduced the expression”, the “iNOS mRNA expression vs LPS” value [1, 3] was “significantly reduced the expression” and the “NLRP3 mRNA expression vs LPS” value ([1]; 10 nM pre-treatment, 100 ng/mL LPS 24 h) was “significantly reduced”. The Ki [2] was 51 nM.
